Measured values reported in patent US20210169690A1, “Self-Retaining Implantable Drug Delivery Device” (GoldenBiotech, LLC, priority 2019, published 2021).
Each block holds one molecule with its values, some of them ahead of it.

Key:
Format in all cases: physicochemical
[1] = Visual examination of physical appearance and mixing of drug-loaded silicone polymer matrix test samples
Source text: To test the loading capacity of a silicone elastomer polymer matrix for a prostaglandin analogue, polymer matrix with different amounts and types of a prostaglandin analogue were made and the physical and mechanical properties of the resulting polymerized drug-loaded matrix were characterized (Tables 1-3). These polymer matrix test samples were made by mixing together a prostaglandin analogue, a liquid cyclic vinyl siloxane elastomer, a crosslinker, and a catalyst using a high-speed mixer and then heated the capped container at 70° C. for 24 hours to cure the mixture. A filler, such as a fumed silica, was also used to provide sufficient mechanical strength to the polymerized matrix. In addition, an inhibitor was used to slow the crosslinking reaction to a workable rate. The resulting thin-disc-shaped drug-loaded polymer matrix was allowed to cool to room temperature and then placed in 4° C. for 24 hours to increase stiffness of the material. The physical appearance of each drug-loaded polymer matrix test sample was examined visually and its mechanical properties analyzed using a durometer.

[2] = Higuchi equation analysis of drug release data
Method: In order to ascertain whether the mechanism of drug release was based on diffusion, data obtained from various coated silicone polymer matrices were analyzed using the Higuchi equation. This analysis determined the linearity between the cumulative amount of drug released and the square root of time (SQRT). […] As exemplified FIG. 10, data is plotted as the square root of time taken on the x-axis and the cumulative percentage of drug release on the y-axis.

[3] = Korsmeyer-Peppas analysis of drug release data; details: for Average n Values, Korsmeyer-Peppas Analysis, Mean: Mean over drug loadings
Method: To confirm the results obtained based on the Higuchi equation analysis, the data above was also analyzed using the Korsmeyer-Peppas plot, which evaluates the mechanism of drug release by plotting the log of percent drug released over the log time in hours. If n equals 0.45, then Fickian diffusion is indicated for a cylinder (0.42 for cylinder of low aspect ratio). […] As exemplified FIG. 11, data is plotted as the log of cumulative percent drug released on the y-axis and the log time in hours on the x-axis.

[4] = Modified Higuchi plot (2A versus Q^2/T)
Method: Travoprost and Latanoprost are oily liquids at room temperature whereas Bimatoprost is a solid at room temperature. To determine whether the liquid versus solid phase of these drugs affects their release from the silicone polymer matrix, data was analyzed using an alternative plot based on the Higuchi equation where twice the drug loading value (2A) is plotted on the […] and the average slope of the plot of cumulative drug released squared versus time in hours (Q^2/T) is plotted on the […].

[5] = Chemical stability of prostaglandin analogues in PBS, RPHPLC; details: PBS at pH 4, 7 and 10; 4° C., 33° C. and 50° C.
Method: The chemical stability of prostaglandin analogues was also examined. In these experiments, a prostaglandin analogue was incubated in phospho-buffered saline (PBS) at pH 4, 7 and 10 and at 4° C., 33° C. and 50° C. representing long term storage, eye temperature and accelerate temperature conditions respectively. Analyses were performed by RPHPLC as described in Example 2, noting any hydrolysis products formed. […] This stability is most likely due to the amide linkage in Bimatoprost which is much more hydrolytically stable than the ester linkage in Latanoprost and Travoprost.

[6] = In vitro drug release from silicone polymer matrix test samples in PBS pH 7.4 at 37° C., RPHPLC; details: for Daily Release Rate: 25% Latanoprost matrix plug, PTFE Thread Seal Tape coat, two 18G depot channels
Method: To test the controlled release properties of the disclosed drug-loaded silicone polymer matrices, the effects of a coating were examined. In these experiments, test samples were made as described in Example 1 to produce thin-disc-shaped drug-loaded polymer matrix. From this material, test samples were prepared by 1) cutting out rectangular polygons of about 3 mm length, about 1 mm width and about 1 mm height were cut from polymerized drug-loaded material; or 2) cutting out cylindrical plugs of about 3 mm length and having a diameter of about 0.5 mm to about 1 mm. The weight of the test samples were in the range about 0.1 mg to about 4 mg.
Certain of these cut test samples were then coated using one of three procedures. Cut test samples were coated with a polymer like poly(p-xylylene) (PARYLENE) to a thickness of about 0.10 μm to about 0.95 μm using a vapor phase deposition procedure. Similarly, cut test samples were coated a metal like titanium to a thickness of about 0.10 μm to about 0.95 μm using a vapor phase deposition procedure. Alternatively, cut test samples were physically wrapped with a tape like polytetrafluoroethylene tape and sealed using cyanoacrylate adhesive.
The presence of opening in a coated test sample was also examined. In these experiments, coated test samples were punctured to produce opening through the coating layer. From one to four opening were made using the tip of an 18G, 23G, 27G or 31G needle. Two types of opening were produced 1) surface pores which created openings only through the coating layer but left the polymer matrix intact; and 2) depot channels which created a tunnel through the entire coated test sample from one end to the other end.
To examine the drug release properties of a test sample, each sample was placed in 2 mL Eppendorf tube containing 1.5 mL of Phosphate Buffered Saline, pH 7.4 (PBS). These tubes were slowly rocked at 37° C. in an incubator. At given time points the PBS was completely removed from the tube and refilled with fresh PBS. An aliquot of the removed PBS was then analyzed by reversed phase HPLC (RPHPLC) to determine the amount of drug released from the test sample during the incubation period. In these experiments, a 10 μL injection of the test sample aliquot was run on an Agilent 1260 Infinity in a reverse phase isocratic mode using UV detection at 210 nm. The column was a Hypersil GOLD Phenyl column, (Dim. (mm) 250×4.6) and the mobile phase was a 1:1 mixture of acetonitrile to aqueous buffer (comprising HPLC grade water mixed with 5 mM ammonium acetate and 0.02% formic acid). The flow rate was 1.2 mL/min and column temperature was 22° C. Peak detection and quantitation was determined by establishing a calibration curve using known amounts of each drug tested and the amount of drug present in the test sample aliquot interpolated from this calibration curve using ChemStation software.

Average Linear Regression r^2 Value, Higuchi Equation Analysis ([2]; Drug Loading 1%): 0.992
Average Linear Regression r^2 Value, Higuchi Equation Analysis ([2]; Drug Loading 2.5%): 0.995
Average Linear Regression r^2 Value, Higuchi Equation Analysis ([2]; Drug Loading 5%): 0.997
Average Linear Regression r^2 Value, Higuchi Equation Analysis ([2]; Drug Loading 10%): 0.988
Average Linear Regression r^2 Value, Higuchi Equation Analysis ([2]; Drug Loading 15%): 0.994
Average Linear Regression r^2 Value, Higuchi Equation Analysis ([2]; Drug Loading 20%): 0.972
Average n Values, Korsmeyer-Peppas Analysis ([3]; Drug Loading 1%): 0.326±
Average n Values, Korsmeyer-Peppas Analysis ([3]; Drug Loading 2.5%): 0.372±
Average n Values, Korsmeyer-Peppas Analysis ([3]; Drug Loading 5%): 0.411±
Average n Values, Korsmeyer-Peppas Analysis ([3]; Drug Loading 10%): 0.377±
Average n Values, Korsmeyer-Peppas Analysis ([3]; Drug Loading 15%): 0.380±
Average n Values, Korsmeyer-Peppas Analysis ([3]; Drug Loading 20%): 0.601±
Average n Values, Korsmeyer-Peppas Analysis, Mean [3]: 0.37 ± 0.08
average slope of cumulative drug released squared versus time in hours (Q^2/T) ([4]; Loading (A %) 1.0): 0.204 ± 0.035
average slope of cumulative drug released squared versus time in hours (Q^2/T) ([4]; Loading (A %) 2.5): 0.387 ± 0.009
average slope of cumulative drug released squared versus time in hours (Q^2/T) ([4]; Loading (A %) 5.0): 1.680 ± 0.232
average slope of cumulative drug released squared versus time in hours (Q^2/T) ([4]; Loading (A %) 10): 2.327 ± 0.252
relationship of Q^2/T to 2A in modified Higuchi plot ([4]; Table 10, FIG. 12 and FIG. 13): linear relationship
Compound: CCNC(=O)CCC/C=C\C[C@@H]1[C@@H](/C=C/[C@@H](O)CCc2ccccc2)[C@H](O)C[C@@H]1O [Bimatoprost]
mixing in the liquid siloxane elastomer ([1]; 15% or 20% Bimatoprost test samples): difficult to mix in the liquid siloxane elastomer
physical examination of test sample ([1]; 20% Bimatoprost test sample): brittle and contained clumps of unincorporated components from the mixture
chemical stability (hydrolysis products) [5]: excellent stability with Bimatoprost being the most stable

Daily Release Rate ([6]; day 7): 3.86 µg/day
Daily Release Rate ([6]; day 19): 5.68 µg/day
Daily Release Rate ([6]; day 29): 3.60 µg/day
Daily Release Rate ([6]; day 64): 5.11 µg/day
Daily Release Rate ([6]; day 71): 8.13 µg/day
Daily Release Rate ([6]; day 106): 2.82 µg/day
Daily Release Rate ([6]; day 122): 1.18 µg/day
period of near zero order release ([6]; coated test sample, 25% Latanoprost, four surface pores): 42 days
total amount of drug released ([6]; coated test sample, 25% Latanoprost, four surface pores, as of 140 days): 2.2%
Average Linear Regression r^2 Value, Higuchi Equation Analysis ([2]; Drug Loading 5%): 0.964
Average Linear Regression r^2 Value, Higuchi Equation Analysis ([2]; Drug Loading 10%): 0.983
Average Linear Regression r^2 Value, Higuchi Equation Analysis ([2]; Drug Loading 15%): 0.990
Average Linear Regression r^2 Value, Higuchi Equation Analysis ([2]; Drug Loading 20%): 0.990
Average n Values, Korsmeyer-Peppas Analysis ([3]; Drug Loading 5%): 0.504±
Average n Values, Korsmeyer-Peppas Analysis ([3]; Drug Loading 10%): 0.501±
Average n Values, Korsmeyer-Peppas Analysis ([3]; Drug Loading 15%): 0.712±
Average n Values, Korsmeyer-Peppas Analysis ([3]; Drug Loading 20%): 1.200±
Average n Values, Korsmeyer-Peppas Analysis, Mean [3]: 0.57 ± 0.16
Compound: CC(C)OC(=O)CCC/C=C\C[C@@H]1[C@@H](CC[C@@H](O)CCc2ccccc2)[C@H](O)C[C@@H]1O [Latanoprost]
physical examination of test sample ([1]; 25% Latanoprost test sample): exhibited more elasticity but had a surface with tacky attributes and a consistency that was not fully homogeneous
release profile ([6]; uncoated silicone polymer matrix loaded with 10% Latanoprost, FIG. 5): rapid release of the drug over the first five days, which then tapers off and by day 12 shows no further significant release of Latanoprost
